Results as given in patent US12419875B2, “Use of Axitinib and analogs thereof in preparing blood-brain barrier permeability regulator” (ZHEJIANG UNIVERSITY, priority 2018, dated 2025).

Columns and labels:
bEnd.3 cells = test: Cell survival rate by tetrazolium blue colorimetry, bEnd.3 cells; type: cell-based; settings: 10 μM (therapeutic dose), FIGS. 13 and 14
Experimental: (§1) FIG. 13: Evaluation of cell survival rate in a Transwell model. A Transwell model of co-incubation of brain microvascular endothelial cells bEnd.3 and glioma cells U87 MG simulates a pathological blood-brain barrier. Axitinib (10 μM) and an Axitinib analog of phosphatidylinositol kinase (PI3K) inhibitor LY294002 (10 μM) were added into the Transwell chamber. After 24 hours, the survival rate of bEnd.3 cells in the Transwell chamber (Panel A) and U87 MG cells in the Transwell outer chamber (Panel B) were detected by tetrazolium blue colorimetry (n=3).
(§2) FIG. 14: Evaluation of Cytotoxicity for Axitinib and an analog thereof. […] Cell survival rate was detected by tetrazolium blue colorimetry. […]
(§3) The physiological blood-brain barrier and the pathological blood-brain barrier as constructed in Method 1 and Method 2 in the Example 1 were used as models, respectively. […] Absorbance at 570 nm was measured with a microplate reader. The survival rate of cells was calculated according to the following formula: Survival rate of cells (%)=(absorbance value of a test group/absorbance value of a control group)×100%
(§4) In addition, bEnd.3 cells and U87 MG glioma cells were used as model cells to evaluate the cytotoxicity of Axitinib and an Axitinib analog of phosphatidylinositol kinase (PI3K) inhibitor LY294002 with the tetrazolium blue colorimetric method. […] Absorbance at 570 nm was measured with a microplate reader.

U87 MG glioma cells = test: Cell survival rate by tetrazolium blue colorimetry, U87 MG cells; type: cell-based; settings: U87MG cells, 10 μM (therapeutic dose); FIGS. 13 and 14
Experimental: as §1, §2, §3, §4

tyrosine hydroxylase = test: Striatum tyrosine hydroxylase immunohistochemistry, model of Parkinson's disease; settings: Axitinib 10 mg/kg 7 days; levodopa 20 mg/kg 10 days; FIG. 29
[1] = test system: pathological blood-brain barrier; test: Evans blue permeation into the brain after treatment, model of Parkinson's disease; type: in vivo, C57/BL6 mice; settings: Axitinib 10 mg/kg tail vein 7 days; levodopa 20 mg/kg intraperitoneally 10 days; vs Parkinson's control; FIGS. 26 and 27
[2] = test system: model of Parkinson's disease; test: Movement time within 2 minutes, model of Parkinson's disease; type: in vivo, C57/BL6 mice; settings: Axitinib 10 mg/kg 7 days; levodopa 20 mg/kg 10 days; vs Parkinson's control; FIG. 28
Experimental: After the treatment was accomplished, movement time within 2 minutes (walking, lifting of both forelimbs, washing face, hair grooming and the like) was recorded for each of the test groups (n=5).
After the Axitinib treatment and the levodopa treatment was accomplished, movement time within 2 minutes (walking, lifting of both forelimbs, washing face, hair grooming and the like) was recorded for each of the test groups.

## O=c1cc(N2CCOCC2)oc2c(-c3ccccc3)cccc12 [LY294002]
bEnd.3 cells
  Cytotoxicity: do not produce significant cytotoxicity
U87 MG glioma cells
  Cytotoxicity: do not produce significant cytotoxicity

## N[C@@H](Cc1ccc(O)c(O)c1)C(=O)O [levodopa]
Tyrosine hydroxylase
  Expression of striatum tyrosine hydroxylase: significantly up-regulated
[1]
  Amount of Evans blue permeated into the brain: reduced to varied degrees
[2]
  Dyskinesia (movement time within 2 minutes): significantly alleviated
